These results are taken from ChEMBL document CHEMBL1128636, “()-1-Azabicyclo[2.2.1]heptan-3-one, O-(3-methyl-5-aryl-2-penten-4-ynyl) oximes: Potent muscarinic agonists” (Bioorg Med Chem Lett, 1995).

The target in test [1] is Muscarinic acetylcholine receptor.
Description: Binding affinity against muscarinic receptor using radioligand [3H]quinuclidinyl benzilate (QNB) binding assay in membrane preparations of rat neocortex.
The target is the same in test [2]. The source holds these as a separate data set.
Description: Binding affinity against muscarinic receptor using radioligand [3H]cis-methyldioxolane (CMD) binding assay in membrane preparations of rat neocortex.
Test [3] has as its target T1, Muscarinic acetylcholine receptor M1 (Homo sapiens) (UniProt P11229).
T1 sequence (whole entry): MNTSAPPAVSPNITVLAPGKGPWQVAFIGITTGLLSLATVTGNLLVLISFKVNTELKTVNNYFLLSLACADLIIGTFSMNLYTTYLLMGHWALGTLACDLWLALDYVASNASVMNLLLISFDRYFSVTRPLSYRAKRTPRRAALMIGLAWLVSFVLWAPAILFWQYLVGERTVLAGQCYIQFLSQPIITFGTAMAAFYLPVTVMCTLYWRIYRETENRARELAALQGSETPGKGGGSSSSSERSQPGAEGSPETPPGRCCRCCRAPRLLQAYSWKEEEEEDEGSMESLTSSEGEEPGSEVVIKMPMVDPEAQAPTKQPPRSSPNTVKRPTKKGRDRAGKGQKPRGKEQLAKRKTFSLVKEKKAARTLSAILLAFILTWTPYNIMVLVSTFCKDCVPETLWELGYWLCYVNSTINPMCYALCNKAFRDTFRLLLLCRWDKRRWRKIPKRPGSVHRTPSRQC
To be noted: NIH3T3.
Description: Agonistic efficacy in human m1 muscarinic receptor expressed with the marker gene beta-galactosidase in NIH 3T3 cells.

In test [4] the target is T2, Muscarinic acetylcholine receptor M2 (Homo sapiens) (UniProt P08172).
T2 sequence (whole entry): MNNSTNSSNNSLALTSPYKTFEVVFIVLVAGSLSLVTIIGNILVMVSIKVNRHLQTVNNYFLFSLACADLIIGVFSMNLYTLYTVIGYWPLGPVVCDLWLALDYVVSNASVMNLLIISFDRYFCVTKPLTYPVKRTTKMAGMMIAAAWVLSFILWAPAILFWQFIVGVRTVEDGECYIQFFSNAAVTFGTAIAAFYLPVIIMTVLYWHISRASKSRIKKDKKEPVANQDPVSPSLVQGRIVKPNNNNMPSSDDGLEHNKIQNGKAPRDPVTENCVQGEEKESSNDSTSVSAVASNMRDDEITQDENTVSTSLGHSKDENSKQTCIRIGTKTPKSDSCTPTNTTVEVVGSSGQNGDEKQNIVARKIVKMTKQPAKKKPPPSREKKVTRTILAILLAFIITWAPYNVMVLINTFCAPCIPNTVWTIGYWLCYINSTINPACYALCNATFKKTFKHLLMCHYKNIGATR
To be noted: NIH3T3.
Description: Agonistic efficacy in human m2 muscarinic receptor expressed with the marker gene beta-galactosidase in NIH 3T3 cells.

Test [5] concerns the target Muscarinic acetylcholine receptor. It is filed as tissue-based, Neocortex.
In test [6] the target is T3, Muscarinic acetylcholine receptor (Rattus norvegicus) (UniProt P08482+P08483+P08485+P08911+P10980). It is filed as tissue-based. To be noted: Neocortex; 100 nM.
Test [7] deals with T3, Muscarinic acetylcholine receptor (Rattus norvegicus). It is filed as tissue-based. To be noted: Neocortex; 1 uM.
Test [8] concerns the target T1, Muscarinic acetylcholine receptor M1 (Homo sapiens). In words: Agonistic efficacy in human m1 muscarinic receptor which was expressed with the marker gene beta-galactosidase in NIH 3T3 cells; No data. It is filed as functional, cell-based. Particulars: NIH3T3.

SMILES strings stand for the structures. Active and inactive are the calls of the source. No cut-off for these calls is given here.

Broadly, the IC50 is the concentration needed to halve the response being measured. Higher therefore signals lower potency. Consider `C/C(C#Cc1ccccc1)=C\CO/N=C1\CN2CCC1C2` (configuration not stated), for which the IC50 is listed as 1587 nM in test [1] and 12.4 nM in test [2].

Turning to `COc1ccc(C#C/C(C)=C/CO/N=C2\CN3CCC2C3)cc1` (configuration not stated), the IC50 in test [1] came out at 1413 nM; in test [2], 12 nM.

For `C/C(C#Cc1ccc(Cl)cc1)=C\CO/N=C1\CN2CCC1C2` (configuration not stated), the IC50 in test [1] worked out at 439 nM; in test [2], 27.12 nM.

On to `C/C(C#Cc1cccs1)=C/CO/N=C1\CN2CCC1C2` (configuration not stated), for which the ED50 was found to be 6.2 nM in test [3] and 2.3 nM in test [4]. Moreover, the figures for the IC50 in test [1] and in test [2] were 21 nM and 0.02 nM, respectively.

As to `C#C/C(C)=C/CO/N=C1/CN2CCC1C2` (configuration not stated), the IC50 turned out to be 19308 nM in test [1] and 21 nM in test [2].

For `C#C/C(C)=C/CO/N=C1\CN2CCC1C2` (configuration not stated), the ED50 worked out at 85 nM in test [3] and 11 nM in test [4]. For the same molecule, the IC50 in test [2] is reported as 4 nM.

For the molecule `COc1ccc(C#C/C(C)=C\CO/N=C2\CN3CCC2C3)cc1` (configuration not stated), the IC50 is 60 nM in test [5] and 0.1 nM in test [2]. In addition, the ED50 came to 8.5 nM in test [3] and 8.9 nM in test [4].

For the molecule `C/C(C#Cc1cccs1)=C\CO/N=C1/CN2CCC1C2` (configuration not stated), the values for the IC50 in test [1] and in test [2] were 5593 nM and 80.47 nM, respectively.

With `C/C(C#Cc1ccc(C)cc1)=C/CO/N=C1/CN2CCC1C2` (configuration not stated), the ED50 was found to be 83.3 nM in test [3] and 4.4 nM in test [4]. The IC50 in test [1] amounted to 383 nM; in test [2] it was 5.02 nM.

For the molecule `C/C(C#Cc1ccc(Cl)c(Cl)c1)=C\CO/N=C1\CN2CCC1C2` (configuration not stated), the ED50 in test [3] came to 398 nM; in test [4], 940 nM. Moreover, the IC50 amounted to 171 nM in test [1] and 0.8 nM in test [2].

Regarding `C/C(C#Cc1ccc(C)cc1)=C\CO/N=C1\CN2CCC1C2` (configuration not stated), the 50% inhibitory concentration (IC50) in test [1] is recorded as 681 nM; in test [2], 22.16 nM.

Turning to `C/C(C#Cc1ccc(Cl)cc1)=C/CO/N=C1/CN2CCC1C2` (configuration not stated), the figures for the ED50 in test [3] and in test [4] were 29.1 nM and 2.8 nM, respectively. Besides, the IC50 in test [1] turned out to be 81 nM; in test [2], 0.45 nM.

`C[N+](C)(C)CCOC(N)=O` returned an ED50 in test [4] of 22.8 nM.

As for `C/C(C#Cc1cccs1)=C/CO/N=C1/CN2CCC1C2` (configuration not stated), the ED50 in test [3] was 11.6 nM; in test [4], 2.5 nM. Besides, the figures for the IC50 in test [1] and in test [2] were 608 nM and 4.1 nM, respectively.

Broadly, the inhibition is how much of the control response was suppressed. On to `C/C(C#Cc1ccc(C)cc1)=C\CO/N=C1/CN2CCC1C2` (configuration not stated), for which the inhibition stood at 29% in test [6] and 31% in test [7].

On to `C/C(C#Cc1ccccc1)=C/CO/N=C1\CN2CCC1C2` (configuration not stated), for which the half-maximal inhibitory concentration (IC50) in test [1] is reported as 44 nM; in test [2], 0.15 nM.

On to `C/C(C#Cc1ccccc1)=C\CO/N=C1/CN2CCC1C2` (configuration not stated), for which the inhibition in test [6] worked out at 31%; in test [7], 18%.

`COc1cccc(C#C/C(C)=C/CO/N=C2/CN3CCC2C3)c1` (configuration not stated) displayed an ED50 in test [3] of 264 nM.

With `C/C(C#Cc1ccc(C)cc1)=C/CO/N=C1\CN2CCC1C2` (configuration not stated), the ED50 in test [3] came to 10.5 nM; in test [4], 10.7 nM. Moreover, the IC50 in test [1] came to 64 nM; in test [2], 0.57 nM.

Take `C/C(C#Cc1ccc(Cl)c(Cl)c1)=C/CO/N=C1\CN2CCC1C2` (configuration not stated): the inhibition in test [6] came out at 46%; in test [7] it was 77%.

With `C/C(C#Cc1ccc(Cl)cc1)=C/CO/N=C1\CN2CCC1C2` (configuration not stated), the ED50 entry in test [8] was “inactive”.

For `COc1ccc(C#C/C(C)=C/CO/N=C2/CN3CCC2C3)cc1` (configuration not stated), the figures for the inhibition in test [6] and in test [7] were 33% and 19%, respectively.

Turning to `C/C(C#Cc1ccc(Cl)c(Cl)c1)=C\CO/N=C1/CN2CCC1C2` (configuration not stated), the inhibition was found to be 49% in test [6] and 39% in test [7].

Turning to `C#C/C(C)=C\CO/N=C1/CN2CCC1C2` (configuration not stated), the ED50 came to 30 nM in test [3] and 45 nM in test [4]. The IC50 in test [1] was found to be 4234 nM; in test [2], 12 nM.

Molecule `COc1cccc(C#C/C(C)=C\CO/N=C2\CN3CCC2C3)c1` (configuration not stated) came in with an ED50 in test [3] of 51.1 nM.

Take `C/C(C#Cc1ccc(F)cc1)=C\CO/N=C1/CN2CCC1C2` (configuration not stated): the ED50 in test [3] came to 156 nM.

As to `C/C(C#Cc1ccc(Cl)c(Cl)c1)=C/CO/N=C1/CN2CCC1C2` (configuration not stated), the inhibition in test [6] was 14%; in test [7], 51%.

Consider `C/C(C#Cc1cccs1)=C\CO/N=C1\CN2CCC1C2` (configuration not stated), for which the ED50 in test [3] is 0.4 nM; in test [4] it was 24 nM. Also, the values for the IC50 in test [1] and in test [2] were 968 nM and 4.96 nM, respectively.

In turn, `COc1ccc(C#C/C(C)=C\CO/N=C2\CN3CCC2C3)cc1OC` (configuration not stated) displayed an ED50 in test [3] of 55 nM. Also, the IC50 in test [1] was 1245 nM; in test [2], 1.38 nM.

`C/C(C#Cc1ccc(Cl)cc1)=C\CO/N=C1/CN2CCC1C2` (configuration not stated): the figures for the inhibition in test [6] and in test [7] were 57% and 52%, respectively.

Consider `C/C(C#Cc1ccc(F)cc1)=C/CO/N=C1/CN2CCC1C2` (configuration not stated), for which the ED50 in test [3] turned out to be 48 nM.

On to `C#C/C(C)=C\CO/N=C1\CN2CCC1C2` (configuration not stated), for which the ED50 in test [3] came to 12 nM; in test [4], 23.7 nM.

Take `COc1ccc(C#C/C(C)=C\CO/N=C2/CN3CCC2C3)cc1` (configuration not stated): the ED50 in test [3] is 8.6 nM; in test [4], 10.7 nM. For the same molecule, the half-maximal inhibitory concentration (IC50) in test [1] was found to be 1992 nM; in test [2], 17 nM.

As to `C/C(C#Cc1ccc(F)cc1)=C/CO/N=C1\CN2CCC1C2` (configuration not stated), the ED50 in test [3] amounted to 20.9 nM.

As for `COc1ccc(C#C/C(C)=C/CO/N=C2\CN3CCC2C3)cc1OC` (configuration not stated), the values for the ED50 in test [3] and in test [4] were 74 nM and 1.8 nM, respectively. The IC50 in test [1] is given as 2380 nM; in test [2], 5.37 nM.

In the case of `COc1ccc(C#C/C(C)=C\CO/N=C2/CN3CCC2C3)cc1OC` (configuration not stated), the ED50 turned out to be 162 nM in test [3] and 0.9 nM in test [4]. Further, the IC50 came out at 8547 nM in test [1] and 4.6 nM in test [2].

Regarding `C/C(C#Cc1ccc(F)cc1)=C\CO/N=C1\CN2CCC1C2` (configuration not stated), in test [3], the ED50 was 31.5 nM.

For `COc1cccc(C#C/C(C)=C/CO/N=C2\CN3CCC2C3)c1` (configuration not stated), the ED50 in test [3] is 93.2 nM.

Turning to `C/C(C#Cc1ccccc1)=C/CO/N=C1/CN2CCC1C2` (configuration not stated), the ED50 was found to be 120 nM in test [3] and 4.2 nM in test [4]. Also, the IC50 in test [1] is 181 nM; in test [2] it was 1.07 nM.
